{
  "source": "patent US20120010229A1",
  "about": "“THERAPEUTIC REGIMENS FOR HEDGEHOG-ASSOCIATED CANCERS” (priority 2010, published 2012)",
  "key": {"[1]": {"system": "LuCaP35V (Castration Resistant) primary prostate cancer", "test": "LuCaP35V castration resistant primary prostate cancer model", "format": "in vivo", "source_text": "The effects of IPI-926 were examined following docetaxel chemotherapy in a model of castration resistant prostate cancer. Prostate cancer is known to be a highly desmoplastic cancer, and one that preferentially metastasizes to bone. Sonic hedgehog ligand is expressed in clinical specimens and primary xenograft models. […] FIG. 7 summarizes the effects of IPI-926 in LuCaP35V (Castration Resistant) primary prostate cancer model. Days of docetaxel and IPI-926 administration are indicated by the arrowheads at the indicated days post-implant. The following samples were tested: Vehicle control (administered orally once a day), 40 mg/kg of IPI-926 (administered orally once a day), docetaxel (administered intravenously Q14D for 28 days), or docetaxel (administered intravenously Q14D for 28 days) followed by 40 mg/kg of IPI-926, as shown in FIG. 7. […] Thus, IPI-926 can be useful as maintenance therapy in prostate cancer."}, "[2]": {"system": "primary serous ovarian cancer xenograft", "test": "Primary serous ovarian cancer xenograft, post carboplatin/taxol", "format": "in vivo, NOD/SCID mice", "protocol": "The effects of IPI-926 were examined following carboplatin/taxol combination chemotherapy in a series of primary ovarian cancer xenograft models.\n1) IPI-926 was given daily, oral at 40 mg/kg\n2) The taxol/carboplatinum was given: • a. Intraperitoneal Carboplatinum 50 mg/kg every 7 days • b. Intraperitoneal Paclitaxel 15 mg/kg every 7 days\nDays of carboplatin/taxol and IPI-926 administration are indicated by the arrows. […] The inhibitory effects of IPI-926 persisted after discontinuing administration of IPI-926. Thus, IPI-926 can be useful as maintenance therapy in ovarian cancer.\nExcess ovarian tumor tissue from patients was collected. Histologically confirmed papillary serous ovarian tumors was disaggregated into purified tumor cells devoid of hematologic components. These cells were suspended in a 1:1 PBS:Matrigel®. A suspension of a specified number of cells was injected subcutaneously (SC) into 6 week old NOD/SCID mice (NOD/LtSz-Prkdcscid/J; 6-8 weeks; Jackson Labs). The mice were housed and maintained in accordance with the institutional guidelines and tumor formation in the injected animals is monitored regularly. Subcutaneous tumors were measured weekly with calipers, and the volume (in mm^3) was determined using the formula: [length (mm)×width (mm)×width (mm)]/2. Animals were euthanized when they become moribund or had evident excessive tumor burden. For continued propagation in mice, the generated tumors were excised and processed as described for the primary tumor samples, depleted of mouse H2 Kd+ cells (MACS beads) and re-injected subcutaneously into new recipient NOD/SCID mice. All tumor cells utilized for these experiments underwent at least 3 passages to ensure the presence of a tumor initiating population. Histology of each generation was evaluated to confirm the maintenance of papillary serous histology.\nFollowing serial transplantation, a minimum of 40 tumor-bearing mice (300-600 mm^3) were treated with vehicle or paclitaxel (15 mg/kg) and carboplatinum (50 mg/kg) (T/C) IP q 7 days. […] Tumor volume and mouse weights were regularly assessed. […]"}, "[3]": {"system": "LX22 primary small cell lung tumor", "test": "LX22 primary small cell lung cancer xenograft, post etoposide/carboplatin", "format": "in vivo, mice", "protocol": "FIG. 1 is a series of line graphs showing the effect in tumor size (mm^3) as a function of days of treatment of mice having an LX22 primary small cell lung tumor with IPI-926 alone (“IPI-926”), etoposide/carboplatin followed by vehicle control (“E/P→Vehicle”), E/P followed by IPI-926 (“E/P→IPI-926”) and vehicle control. Mice were treated for 5 weeks total with IPI-926 follow-up treatment at 40 mg/kg PO QD.\nBriefly, LX22 primary small cell lung model was treated with 1.5 cycles of etoposide/carboplatin (E/P). Administration of IPI-926 was initiated 24 hours after the last dose of chemotherapy. In the normal course of these studies, IPI-926 was administered […].\nThe effect of delaying the onset of IPI-926 administration following chemotherapy was further characterized. […] FIG. 2 is a linear graph depicting the effect in tumor size as a function of time of chemotherapy treatment and following with IPI-926 treatment on day 5 (D5) and day 15 (D15) following chemotherapy treatment. Thus, a narrow window of intervention is necessary to maximize the beneficial effects of IPI-926 in tumor inhibition following chemotherapy."}, "Gli1": {"system": "Gli1", "test": "Gli1 mRNA by RT-PCR in Ptc^C/C tumors", "format": "in vivo, mouse", "details": "for suppression of Gli1 levels vs vehicle: daily 20 mg/kg/dose; for reduction in Gli1 mRNA levels: single dose", "protocol": "Pharmacodynamic activity of IPI-926 in Ptc^C/C tumors was confirmed by analysis of Gli1 mRNA by RT-PCR. Mice were treated daily with 20 mg/kg/dose IPI-926 for 2 days, 2 weeks or 6 weeks and tumor tissue isolated and snap frozen 24 hours after the last dose. Total RNA was extracted using the Qiagen RNeasy Plus Kit and converted to cDNA using the Taqman Reverse Transcription kit (ABI). Quantitative Real Time PCR was set up using Taqman Master Mix and run on the Applied Biosystems 7300HT Real-Time PCR (384-well qPCR) System. Taqman primers for mouse Gli1 and Gapdh controls were used (ABI). Data was analyzed using SDS2.3 software (ABI). All conditions were run in triplicate and normalized to mouse Gapdh controls. Expression of IPI-926 treated (n=3 per time point) samples were normalized to vehicle control (n=3 per time point) samples.\nIn initial studies in the Ptc^C/C mice intracranial pressures were sufficiently high in some mice that brainstem herniation into the spinal canal and subsequent death occurred by tipping the head back for gavage feeding. Pharmacodynamic studies were conducted with intraperitoneal (IP) drug injection as well as oral gavage to see whether the IP route offered a safe and effective alternative to gavage drug administration. Both oral and IP routes induced approximately 90% reduction in Gli1 mRNA levels (FIG. 14), so IP administration was used for all subsequent studies."}},
  "note": "Entries after “also recorded” stand apart in the source; their conditions may differ.",
  "data": [
    {"smiles": "CC1=C2C[C@H]3[C@@H](CC[C@@H]4C[C@H](NS(C)(=O)=O)CC[C@@]43C)[C@@H]2CC[C@@]2(C1)O[C@@H]1C[C@H](C)CN[C@H]1[C@H]2C", "note": "[IPI-926]", "values": [
      {"measurement": "tumor volume, IPI-926 alone", "setting": "[1]; 40 mg/kg orally once a day", "result": "marked increase in tumor volume"},
      {"measurement": "tumor volume after cessation of docetaxel chemotherapy", "setting": "[1]; docetaxel IV Q14D for 28 days followed by 40 mg/kg IPI-926", "result": "prolonged duration of the tumor inhibition"},
      {"measurement": "percent tumor volume, IPI-926 alone", "setting": "[2]; after 20 days of treatment, vs control treated mice", "result": "smaller percent tumor volume (p<0.007)"},
      {"measurement": "tumor volume after cessation of carboplatin/taxol chemotherapy", "setting": "[2]; carboplatin/taxol followed by IPI-926 40 mg/kg oral, vs followed by vehicle, 40 mg/kg", "result": "prolonged duration of the tumor inhibition; also recorded: smaller percent tumor volume (p<0.02)"},
      {"measurement": "mGLI-1 mRNA in tumor", "setting": "[2]; primary xenograft model of ovarian cancer", "result": "modulate mGLI-1"},
      {"measurement": "tumor re-growth following cyto-reductive chemotherapy", "setting": "[3]; E/P then IPI-926 40 mg/kg PO QD, started 24 hours after last chemotherapy dose", "result": "inhibitory effect on the re-growth of tumors"},
      {"measurement": "tumor growth inhibition with delayed onset of administration", "setting": "[3]; IPI-926 administration delayed by 5 or 14 days after chemotherapy", "result": "loss of the IPI-926 effect in tumor growth inhibition"},
      {"measurement": "expression of stromal marker murine Gli-1", "setting": "[3]; tumors after chemotherapy, vs vehicle-treated", "result": "inhibited"},
      {"measurement": "suppression of Gli1 levels vs vehicle", "setting": "Gli1; after 2 weeks of therapy", "result": 60, "unit": "%"},
      {"measurement": "suppression of Gli1 levels vs vehicle", "setting": "Gli1; after 6 weeks of therapy", "result": 30, "unit": "%"},
      {"measurement": "suppression of Gli1 levels vs vehicle", "setting": "Gli1; after 2 days of therapy", "result": 90, "unit": "%"},
      {"measurement": "reduction in Gli1 mRNA levels", "setting": "Gli1; intraperitoneal injection", "result": "approximately 90%"},
      {"measurement": "reduction in Gli1 mRNA levels", "setting": "Gli1; oral gavage", "result": "approximately 90%"}
    ]}
  ]
}
